Experimental data: patent US20220144812A1, “QUINOLINE DERIVATIVES AND THEIR USE FOR THE TREATMENT OF CANCER” (Epizyme, Inc., priority 2019, published 2022)
Read-outs that look alike come from different tables or passages of the source.

How the values were obtained:
CREBBP (1084-1701) = target: T1, CREBBP (1084-1701) (Homo sapiens, UniProt Q92793); experiment: Biochemical assay for CREBBP (1084-1701), SAMDI; conditions: SAMDI, read-out: CREBBP Biochemistry IC50
T1 construct: measured in the following biochemical assay using CREBBP (1084-1701); purchased
Summary of the method: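 Acetyltransferase activity measured by SAMDI mass spectrometry after capture on biochip. Enzyme sat with compound 30 min at RT before acetyl-CoA and biotinylated H3 11-25 (K14R, K23R) peptide were added for 30 min at RT. Formic acid quench, bicarbonate neutralisation; IC50 values reported.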

EP300 (P300(1048-1664)) = target: T2, EP300 (P300(1048-1664)) (Homo sapiens, UniProt Q09472); experiment: Biochemical assay for EP300, SAMDI; conditions: EP300, SAMDI; read-out: EP300 Biochemistry IC50
T2 construct: P300(1048-1664)
T2 sequence (Q09472 1048-1664): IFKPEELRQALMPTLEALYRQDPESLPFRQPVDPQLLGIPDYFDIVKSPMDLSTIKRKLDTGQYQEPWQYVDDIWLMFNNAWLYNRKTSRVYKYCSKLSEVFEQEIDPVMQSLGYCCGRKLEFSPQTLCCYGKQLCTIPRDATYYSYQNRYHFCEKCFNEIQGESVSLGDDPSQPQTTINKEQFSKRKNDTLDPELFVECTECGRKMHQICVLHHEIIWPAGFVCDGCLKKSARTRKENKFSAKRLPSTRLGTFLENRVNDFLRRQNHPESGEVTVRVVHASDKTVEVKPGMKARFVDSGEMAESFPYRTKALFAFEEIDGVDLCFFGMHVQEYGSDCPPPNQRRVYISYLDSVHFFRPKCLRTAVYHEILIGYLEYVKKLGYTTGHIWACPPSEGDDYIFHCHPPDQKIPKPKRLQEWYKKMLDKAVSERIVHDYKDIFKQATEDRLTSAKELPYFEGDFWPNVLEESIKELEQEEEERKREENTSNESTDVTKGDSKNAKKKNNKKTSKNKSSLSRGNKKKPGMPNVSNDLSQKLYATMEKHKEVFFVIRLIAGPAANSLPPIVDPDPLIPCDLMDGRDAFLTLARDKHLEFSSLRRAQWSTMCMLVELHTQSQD
Source text: The following example describes materials and methods relating to a biochemical assay for EP300. IC50 values (micromolar (μM)) are summarized in Table 1, Table 2, and Table 3 under the column labeled: “EP300 Biochemistry IC50 (micromolar).”

647V cells = experiment: High throughput proliferation (HTP) assay; assay type: cell-based; conditions: high throughput proliferation, read-out: CREBBP HTP IC50
Source text: The following example describes methods and materials relating to a high throughput proliferation (HTP) assay. IC50 values (micromolar) are summarized in Table 1, Table 2, and Table 3 under the column labeled: “CREBBP HTP IC50 (micromolar).”
MATERIALS: 647V cell line, Dulbecco's MEM, penicillin-streptomycin, heat inactivated fetal bovine serum, D-PBS, and CellTiter-Glo were commercially available.
647V adherent cells were maintained in complete growth medium (Dulbecco's MEM supplemented with 15% v/v heat inactivated fetal bovine serum) and cultured at 37° C. under 5% CO2.
METHOD: Measurement of the effect of compound in High Throughput Proliferation (HTP) assays was performed as follows: Exponentially growing 647V cells were plated, in triplicate, in 384-well plates at the appropriate cell density in a final volume of 50 μl. Cells were incubated in the presence of increasing concentrations of compound. Viable cell number was determined at day 7 by addition of 35 μl CellTiter-Glo to each well of the plate, incubated in the dark for 30 minutes, and read on a PerkinElmer EnVision instrument to enumerate the number of cells.

[1] = test system: H3K18Ac in HB-CLS-2 cells; experiment: H3K18AC in-cell western (ICW) assay; assay type: cell-based; conditions: H3K18Ac in-cell western, read-out: CREBBP ICW IC50
Summary of the method: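 In-cell western: after methanol fixation, blocking, overnight 4° C anti-H3K18Ac staining, then 800CW secondary plus DRAQ5 for DNA content, integrated intensities were scanned at 800 and 700 nm. Before this, compound exposure lasted 2 hr at 37° C in HB-CLS-2 cells plated 16–24 hours earlier. Values expressed as IC50 (μM).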

[2] = Homo sapiens, 647-V, 647V cells

T1 sequence (Q92793 1084-1701): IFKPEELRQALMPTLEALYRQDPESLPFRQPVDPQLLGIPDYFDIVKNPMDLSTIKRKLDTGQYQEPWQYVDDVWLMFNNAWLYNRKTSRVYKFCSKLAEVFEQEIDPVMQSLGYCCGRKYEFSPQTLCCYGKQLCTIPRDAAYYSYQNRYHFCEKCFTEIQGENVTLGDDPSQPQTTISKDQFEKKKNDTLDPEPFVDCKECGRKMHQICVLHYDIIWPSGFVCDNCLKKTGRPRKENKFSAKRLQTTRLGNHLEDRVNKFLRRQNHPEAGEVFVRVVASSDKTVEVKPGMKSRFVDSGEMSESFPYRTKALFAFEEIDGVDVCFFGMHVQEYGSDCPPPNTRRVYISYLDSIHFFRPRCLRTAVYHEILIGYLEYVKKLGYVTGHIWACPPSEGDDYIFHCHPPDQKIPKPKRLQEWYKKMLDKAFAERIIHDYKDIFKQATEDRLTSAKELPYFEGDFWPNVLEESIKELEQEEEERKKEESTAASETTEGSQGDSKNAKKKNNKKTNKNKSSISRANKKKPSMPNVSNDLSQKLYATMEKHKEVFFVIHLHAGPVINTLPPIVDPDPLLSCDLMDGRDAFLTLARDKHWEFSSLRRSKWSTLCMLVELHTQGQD

Row | SMILES | IC50 (CREBBP (1084-1701)) [nM] | IC50 (EP300 (P300(1048-1664))) [nM] | IC50 [1] [nM] | IC50 ([1]; HB-CLS-2 cells) [nM] | IC50 (647V cells; Homo sapiens, 647-V) [nM] | IC50 (647V cells; [2]) [nM] | IC50 (647V cells) [nM] | IC50 (647V cells; 647V cells) [nM]
1 | CCn1ncc(CN(C)C(=O)c2nc(-n3cc4c(n3)CNCC4)nc3ccc(Cl)cc23)c1C [Compound 179] | 115000 | 55000 | 18000 | – | 20000 | – | – | –
2 | CCn1ncc(CN(C)C(=O)c2nc(-c3ccc(-c4ccn[nH]4)cc3)nc3ccc(Cl)cc23)c1C [Compound 171] | 8500 | 3600 | 14000 | – | 7800 | – | – | –
3 | CCn1ncc(CN(C)C(=O)c2nc(N3CCn4cc(C)nc4C3)nc3ccc(Cl)cc23)c1C [Compound 220] | 141000 | 100000 | – | 20000 | – | 20000 | – | –
4 | CCn1ncc(CN(C)C(=O)c2nc(N3CCc4cn[nH]c4C3)nc3ccc(Cl)cc23)c1C [Compound 161] | 17000 | 6200 | 11000 | – | 11000 | – | – | –
5 | CCn1ncc(CN(C)C(=O)c2cc(-c3ccc(NCCNC)nn3)nc3ccc(Cl)cc23)c1C [Compound 504] | 5780 | 2000 | 3990 | – | 3730 | – | – | –
6 | CCn1ncc(CN(C)C(=O)c2cc(-c3ccc(NCCNC)c(C)n3)nc3ccc(Cl)cc23)c1C [Compound 388] | 34 | 11 | – | 230 | – | 66 | – | –
7 | CCn1ncc(CN(C)C(=O)c2nc(-c3ccc(OCCCNC(=O)OC(C)(C)C)c(OC)c3)nc3ccc(Cl)cc23)c1C [Compound 127] | 12000 | 15000 | 4400 | – | 3500 | – | – | –
8 | CCn1ncc(CN(C)C(=O)c2nc(-c3ccc(CN4CCNCC4)c(OC)c3)nc3ccc(Cl)cc23)c1C [Compound 139] | 6800 | 7400 | 5900 | – | – | – | 7500 | –
9 | CCn1ncc(CN(C)C(=O)c2nc(-c3ccc(OCCOC)cc3Cl)nc3ccc(Cl)cc23)c1C [Compound 96] | 740 | 1500 | 1900 | – | 1800 | – | – | –
10 | CCn1ncc(CN(C)C(=O)c2cc(-c3ccc(NCCNC)c(C)n3)nc3ccc(COC)cc23)c1C [Compound 432] | 39.6 | 18.6 | 155 | – | 106 | – | – | –
11 | CCn1ncc(CN(C)C(=O)c2cc(-c3cc4[nH]cnc4c(C)n3)nc3ccc(COC)cc23)c1C [Compound 530] | 50.3 | 12.5 | 154 | – | 248 | – | – | –
12 | CCc1nn(C)c(CN(C)C(=O)c2cc(-c3ccc(NCCN(C)C)c(C)n3)nc3ccc(Cl)cc23)c1C [Compound 587] | 14200 | 17300 | 8020 | – | 1610 | – | – | –
13 | CCn1ncc(CN(C)C(=O)c2nc(-c3cc(Cl)cc(NCCCNC)c3)nc3ccc(Cl)cc23)c1C [Compound 50] | 16 | 5 | 480 | – | – | – | 150 | –
14 | CCn1ncc(CN(C)C(=O)c2nc(N3CCn4ncnc4C3)nc3ccc(Cl)cc23)c1C [Compound 190] | – | 103000 | 20000 | – | 20000 | – | – | –
15 | CCn1ncc(CN(C)C(=O)c2nc(-c3ccc(OCCCN(C)C(=O)OC(C)(C)C)c(C)c3)nc3ccc(Cl)cc23)c1C [Compound 183] | 18000 | 42000 | – | – | – | – | 8700 | –
16 | CCn1ncc(CN(C)C(=O)c2nc(-c3ccccc3Cl)nc3c(C#N)cccc23)c1C [Compound 211] | 32000 | 17000 | – | – | – | – | – | 15000
17 | CCn1ncc(CN(C)C(=O)c2nc(-c3cc(C(=O)NC)nn3C)nc3ccc(P(C)(C)=O)cc23)c1C [Compound 393] | 50000 | 50000 | – | – | – | – | – | 8600

Continued, in another order:

Row | IC50 (CREBBP (1084-1701)) [nM] | IC50 (EP300 (P300(1048-1664))) [nM] | IC50 [1] [nM] | IC50 ([1]; HB-CLS-2 cells) [nM] | SMILES | IC50 (647V cells; Homo sapiens, 647-V) [nM] | IC50 (647V cells; [2]) [nM] | IC50 (647V cells) [nM] | IC50 (647V cells; 647V cells) [nM]
18 | 37.5 | 11.3 | 816 | – | CCc1ncc(CN(C)C(=O)c2nc(-c3cc(C)cc(NC4CNC4)c3)nc3ccc(Cl)cc23)n1C [Compound 566] | 338 | – | – | –
19 | 1060 | 1050 | 603 | – | CCn1ncc(CN(C)C(=O)c2nc(-c3cc4[nH]ncc4nc3C)nc3ccc(Cl)cc23)c1C [Compound 528] | 1110 | – | – | –
20 | 50000 | 36000 | – | 20000 | CCn1ncc(CN(C)C(=O)c2nc(-c3cnc(CO)n3C)nc3ccc(Cl)cc23)c1C [Compound 208] | – | 20000 | – | –
21 | 34 | 16.8 | 256 | – | CCc1ncc(CN(C)C(=O)c2cc(-c3cc(-c4ncc[nH]4)n(C)n3)nc3ccc(COC)cc23)n1C [Compound 629] | 292 | – | – | –
22 | 1600 | 1300 | 1100 | – | CCn1ncc(CN(C)C(=O)c2nc(-c3ccnc(N)c3)nc3ccc(Cl)cc23)c1C [Compound 77] | 760 | – | – | –
23 | 430 | 950 | – | 1100 | CCn1ncc(CN(C)C(=O)c2nc(-c3cc(C)cc(NCC(=O)NC)c3)nc3ccc(Cl)cc23)c1C [Compound 408] | – | 890 | – | –
24 | 16 | 11 | 60 | – | CCn1ncc(CN(C)C(=O)c2nc(-c3cc(NCCNC)cc(OC)c3)nc3ccc(Cl)cc23)c1C [Compound 5] | 35 | – | – | –
25 | 79.7 | 22.2 | 77.9 | – | CCc1ncc(CN(C)C(=O)c2cc(-c3cc(NCCNC)cc(OC)n3)nc3ccc(Cl)cc23)n1C [Compound 567] | 32 | – | – | –
26 | 570 | 690 | 520 | – | CCn1ncc(CN(C)C(=O)c2nc(-c3cc4nc[nH]c4cc3OC)nc3ccc(Cl)cc23)c1C [Compound 51] | 520 | – | – | –
27 | 25.4 | 11.1 | 428 | – | CCc1ncc(CN(C)C(=O)c2cc(-c3ccc(NCC(O)CNC)c(C)n3)nc3ccc(Cl)cc23)n1C (centres unmarked) [Compound 571] | 118 | – | – | –
28 | 533 | 3090 | 943 | – | CCc1ncc(CN(C)C(=O)c2nc(-c3ccc(NCCN(C)C)nc3C)nc3ccc(Cl)cc23)n1C [Compound 605] | 447 | – | – | –
29 | 3.2 | 3.2 | 270 | – | CCn1ncc(CN(C)C(=O)c2nc(-c3cc(Cl)cc(NC(=O)NC)c3)nc3ccc(Cl)cc23)c1C [Compound 34] | 200 | – | – | –
30 | 49.6 | 15.6 | 271 | – | CCc1ncc(CN(C)C(=O)c2cc(-c3cc(C(=O)NC)n(C)n3)nc3ccc(COC)cc23)n1C [Compound 627] | 506 | – | – | –
31 | 6300 | 3500 | 4000 | – | CCn1ncc(CN(C)C(=O)c2nc(-c3cn[nH]c3)nc3ccc(Cl)cc23)c1C [Compound 125] | 4100 | – | – | –
32 | 28.6 | 8.9 | 73.3 | – | CCc1ncc(CN(C)C(=O)c2cc(-c3ccc(NCC(O)CN(C)C)c(C)n3)nc3ccc(Cl)cc23)n1C (centres unmarked) [Compound 588] | 27.9 | – | – | –
33 | 13.5 | 5.7 | 55.4 | – | CCc1ncc(CN(C)C(=O)c2nc(-c3cc4c(NC)n[nH]c4cc3C)nc3ccc(Cl)cc23)n1C [Compound 563] | 37.5 | – | – | –
34 | – | 140000 | – | 20000 | CCn1ncc(CN(C)C(=O)c2nc(-c3cn(CCNC)cn3)nc3ccc(Cl)cc23)c1C [Compound 228] | – | 20000 | – | –
